According to the NIST ThermoML archive (doi:10.1016/j.fluid.2004.10.028):

Assay: wn = mass fraction of the nth substance listed
Settings: Liquid, Capillary tube (Ostwald / Ubbelohde) method

O=S(=O)([O-])[O-].[Na+].[Na+] [sodium sulfate] + O
viscosity [mPa·s]
Settings	100 kPa	10000 kPa	20000 kPa	30000 kPa	40000 kPa
348.15 K, w1 = 0.015	–	–	–	–	0.4087
348.35 K, w1 = 0.03	0.4107	0.4134	0.4169	0.42	0.4225
348.42 K, w1 = 0.1	0.5232	0.5267	0.5294	0.534	0.5399
348.6 K, w1 = 0.26	1.01	1.017	1.023	1.029	1.041
348.7 K, w1 = 0.15	0.6292	0.6336	0.6367	0.6418	0.6473
348.7 K, w1 = 0.23	0.8925	0.8987	0.9053	0.9128	0.92
370.4 K, w1 = 0.23	–	0.6799	0.6864	0.6905	0.6997
371.95 K, w1 = 0.05	–	0.3317	0.335	0.3389	0.343
372.4 K, w1 = 0.1	–	0.3948	0.3979	0.3998	0.4062
372.8 K, w1 = 0.15	–	0.4705	0.4743	0.4795	0.484
372.9 K, w1 = 0.03	–	0.3096	0.3124	0.3164	0.3186
373.8 K, w1 = 0.015	–	0.2947	0.2994	0.3034	0.3065
373.9 K, w1 = 0.07	–	0.3482	0.3508	0.3546	0.359
374.5 K, w1 = 0.2	–	0.5699	0.5743	0.5799	0.5875
375.2 K, w1 = 0.26	–	0.7321	0.7395	0.7436	0.7535
395.4 K, w1 = 0.15	–	0.3731	0.3767	0.381	0.386
395.62 K, w1 = 0.05	–	0.2626	0.2668	0.2695	0.2716
397.1 K, w1 = 0.07	–	0.2772	0.2799	0.2834	0.287
397.21 K, w1 = 0.2	–	0.4505	0.454	0.4598	0.4654
398.4 K, w1 = 0.03	–	0.2422	0.2468	0.2494	0.251
398.72 K, w1 = 0.1	–	0.3052	0.3094	0.3132	0.3159
398.8 K, w1 = 0.23	–	0.5081	0.5124	0.5185	0.5253
399.01 K, w1 = 0.015	–	0.2321	0.2367	0.2398	0.2412
399.4 K, w1 = 0.26	–	0.5695	0.5739	0.58	0.5895
420.3 K, w1 = 0.2	–	0.3686	0.3729	0.3775	0.3826
421.3 K, w1 = 0.15	–	0.2998	0.3027	0.3087	0.3114
421.4 K, w1 = 0.1	–	0.2535	0.2565	0.2596	0.2635
